Test results published in the supplement of paper PMC10307832.

How the values were obtained:
Assay in all cases: relative viability (nuclei count vs DMSO), 5 days (fraction); higher = more cells survive
[1] = compound: CC(C)=CC[C@@H](O)C1=CC(=O)c2c(O)ccc(O)c2C1=O [Shikonin] + COc1cccc2cc(-c3nc([C@H]4CC[C@H](C(=O)O)CC4)n4ncnc(N)c34)[nH]c12 [OSI-027] (partner 0.5 µM)
Summary of the method: (§1)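 Cells from lung cancer lines were seeded into 1536-well plates and, one day later, dosed by pin tool. Treatments were either a single drug or a fixed dose of an anchor drug with five library-drug doses (not always all listed) in √10 steps. After 5 days, nuclei were stained in a one-step fixation (final 0.05% Triton X-100, 1% formaldehyde, 1 ug/ml Hoechst) and counted on 4× images, and relative viability is the treated-to-vehicle nuclei ratio, as the median of duplicate plates.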

[2] = compound: CC(C)=CC[C@@H](O)C1=CC(=O)c2c(O)ccc(O)c2C1=O [Shikonin] + O=C(CCCCCCC(=O)Nc1ccccc1)NO [Vorinostat] (partner 1 µM)
Summary of the method: as §1

[3] = compound: CC(C)N(CCCNC(=O)Nc1ccc(C(C)(C)C)cc1)C[C@H]1O[C@@H](n2ccc3c(N)ncnc32)[C@H](O)[C@@H]1O + CC1(C)CCC(c2ccc(Cl)cc2)=C(CN2CCN(c3ccc(C(=O)NS(=O)(=O)c4ccc(N[C@H](CCN5CCOCC5)CSc5ccccc5)c(S(=O)(=O)C(F)(F)F)c4)cc3)CC2)C1 [Navitoclax] (partner 0.5 µM)
Summary of the method: as §1

[4] = compound: CC(C)N(CCCNC(=O)Nc1ccc(C(C)(C)C)cc1)C[C@H]1O[C@@H](n2ccc3c(N)ncnc32)[C@H](O)[C@@H]1O + C[C@]1(O)C[C@@H](c2nc(-c3ccc4ccc(-c5ccccc5)nc4c3)c3c(N)nccn32)C1 [Linsitinib] (partner 1 µM)
Summary of the method: as §1

Cell Line	relative viability ([1]; first compound 0.01 µM)	relative viability ([1]; first compound 0.1 µM)	relative viability ([1]; first compound 0.3162 µM)	relative viability ([1]; first compound 1 µM)	relative viability ([2]; first compound 0.01 µM)	relative viability ([2]; first compound 0.1 µM)	relative viability ([2]; first compound 0.3162 µM)	relative viability ([2]; first compound 1 µM)	relative viability ([3]; first compound 0.08 µM)	relative viability ([3]; first compound 0.253 µM)	relative viability ([3]; first compound 0.8 µM)	relative viability ([3]; first compound 2.53 µM)	relative viability ([3]; first compound 8 µM)	relative viability ([4]; first compound 0.08 µM)	relative viability ([4]; first compound 0.253 µM)	relative viability ([4]; first compound 0.8 µM)	relative viability ([4]; first compound 2.53 µM)	relative viability ([4]; first compound 8 µM)
201T	0.795	0.994	0.715	0.976	1.02	1.03	1.02	1	1.21	1.21	1.24	1.21	1.25	1.01	1.06	0.981	1.01	1.08
A549	–	–	–	–	–	–	–	–	1.17	1.22	1.25	1.18	1.14	0.561	0.554	0.525	0.679	0.635
A-427	0.503	0.594	0.514	0.509	0.862	0.938	0.93	0.931	0.917	0.941	0.875	0.969	0.925	1.18	1.12	1.1	1.12	1.14
ABC-1	0.61	0.533	0.391	0.265	1.2	1.15	1.08	0.837	–	–	–	–	–	0.978	0.95	–	0.709	0.905
BEN	0.281	0.311	0.298	0.324	0.567	0.619	0.606	0.617	0.0864	0.0543	0.0608	0.0499	0.0778	0.819	0.849	0.924	1.01	0.865
CAL-12T	0.658	0.936	0.546	0.488	0.842	0.802	0.832	0.583	1.14	1.27	1.19	1.19	1.19	0.788	0.772	0.809	0.89	0.739
COR-L23	0.854	0.778	0.732	0.729	0.413	0.449	0.471	0.308	0.977	0.919	0.982	1.01	0.963	0.837	0.934	0.916	1.04	0.897
COR-L 105	0.685	0.723	0.613	0.611	0.841	0.91	0.881	0.853	0.745	0.776	0.886	0.931	0.645	0.805	1.18	1.07	0.727	0.896
Calu-6	–	–	–	–	–	–	–	–	0.887	0.87	0.848	0.902	0.841	1	0.933	0.871	0.988	0.858
ChaGo-K-1	0.598	0.654	0.665	0.662	0.746	0.914	0.8	0.762	1.01	1.02	0.92	1.01	1.05	–	–	–	–	–
EBC-1	–	–	–	–	–	–	–	–	0.406	0.387	0.383	0.363	0.388	0.656	0.74	0.598	0.885	0.727
EKVX	0.617	0.668	0.917	0.734	0.634	0.711	0.831	0.925	0.905	0.974	0.976	0.95	0.915	0.941	0.972	0.914	0.943	0.927
EMC-BAC-2	0.38	0.399	0.39	0.386	0.431	0.465	0.439	0.659	1.14	1.15	1.13	1.14	1.08	0.764	0.835	0.794	0.806	0.804
EPLC-272H	0.271	0.274	0.279	0.259	0.378	0.353	0.536	0.377	1.03	0.981	0.989	1.12	1.02	1.12	1.09	1.05	1.03	1.05
H3255	0.591	0.596	0.622	0.475	0.703	0.959	0.916	0.855	0.518	0.555	0.545	0.367	0.551	0.804	0.958	0.947	0.994	0.84
HARA	0.431	0.667	0.521	0.521	0.546	0.51	0.468	0.605	1.08	1.07	1.15	1.13	0.941	0.885	0.845	0.868	0.794	0.906
HCC-15	0.719	0.705	0.692	0.744	0.986	0.841	1.01	0.955	0.653	0.717	0.733	0.707	0.673	0.84	0.908	0.909	0.9	0.859
HCC-44	0.512	0.513	0.466	0.747	1.14	1.12	1.13	1.03	0.952	1.1	0.915	0.961	1.03	0.647	0.68	0.748	0.666	0.729
HCC-78	0.338	0.377	0.353	0.401	0.505	0.472	0.514	0.415	0.704	0.646	0.607	0.784	0.839	0.576	0.437	0.423	0.51	0.456
HCC-366	1.07	1.27	1.14	0.859	0.367	0.425	0.323	0.484	1.08	1.05	0.928	0.898	0.942	0.597	0.581	0.563	0.547	0.513
HCC-827	0.821	0.86	0.9	0.761	0.831	0.908	1.06	0.855	0.992	0.949	–	0.962	0.977	0.936	0.904	–	0.892	0.89
HOP-62	0.967	1.06	1.03	0.826	0.663	0.667	0.739	0.558	0.89	1.07	0.846	0.929	1.03	0.859	0.924	0.989	0.896	0.768

Cell Line	relative viability ([1]; first compound 0.01 µM)	relative viability ([1]; first compound 0.1 µM)	relative viability ([1]; first compound 0.3162 µM)	relative viability ([1]; first compound 1 µM)	relative viability ([2]; first compound 0.01 µM)	relative viability ([2]; first compound 0.1 µM)	relative viability ([2]; first compound 0.3162 µM)	relative viability ([2]; first compound 1 µM)	relative viability ([3]; first compound 0.08 µM)	relative viability ([3]; first compound 0.253 µM)	relative viability ([3]; first compound 0.8 µM)	relative viability ([3]; first compound 2.53 µM)	relative viability ([3]; first compound 8 µM)	relative viability ([4]; first compound 0.08 µM)	relative viability ([4]; first compound 0.253 µM)	relative viability ([4]; first compound 0.8 µM)	relative viability ([4]; first compound 2.53 µM)	relative viability ([4]; first compound 8 µM)
IA-LM	–	–	–	–	1.08	0.512	1.07	1	0.693	0.788	0.951	0.72	0.586	0.318	0.559	0.413	0.443	0.432
LC-2-ad	0.815	0.913	0.816	0.876	0.696	0.759	0.739	0.678	0.612	0.409	0.435	0.458	0.462	0.886	0.856	0.818	0.79	0.824
LCLC-97TM1	0.504	0.591	0.675	0.579	0.872	0.764	1.08	0.928	0.407	–	0.296	0.273	0.432	0.195	–	0.133	0.158	0.191
LCLC-103H	0.541	0.54	0.514	0.534	0.791	0.877	0.801	0.889	–	–	–	–	–	1.04	0.887	0.959	1.04	0.917
LK-2	0.168	0.241	0.203	0.227	0.279	0.309	0.214	0.316	0.848	0.775	0.929	0.768	0.711	0.678	0.405	0.496	0.554	0.509
LOU-NH91	0.718	0.813	0.786	0.726	0.921	1.02	1.04	0.957	0.628	0.581	–	0.652	0.606	0.944	0.873	–	0.998	0.918
LU99A	0.271	0.344	0.265	0.305	0.459	0.617	0.485	0.494	0.745	0.717	0.747	1.01	0.881	0.516	0.405	0.521	0.582	0.563
LXF-289	0.817	0.84	0.825	0.892	0.787	0.764	0.862	0.79	1	0.969	0.957	0.988	0.854	0.994	1.03	0.951	1.01	0.928
NCI-H358	0.681	0.699	0.712	0.662	0.999	0.67	0.856	0.573	–	–	–	–	–	0.775	0.814	0.786	0.823	0.668
NCI-H522	0.566	0.729	0.72	0.809	0.875	1	0.903	0.958	–	–	–	–	–	–	–	–	–	–
NCI-H650	0.612	0.555	0.592	0.568	0.425	0.418	0.465	0.439	–	–	–	–	–	0.757	0.732	1.04	0.791	0.704
NCI-H661	0.685	0.774	0.782	0.842	0.837	0.833	0.812	0.736	–	–	–	–	–	0.473	0.553	0.585	0.567	0.57
NCI-H1299	–	–	–	–	–	–	–	–	1.07	1.05	1.02	1.06	1.02	0.876	1.02	0.97	0.918	0.942
NCI-H1563	0.678	0.714	0.798	0.769	–	–	–	–	–	–	–	–	–	1.16	1.14	1.32	1.27	1.18
NCI-H1623	0.397	0.428	0.414	0.393	–	–	–	–	–	–	–	–	–	–	–	–	–	–
NCI-H1648	0.253	0.285	0.285	0.26	0.351	–	0.672	0.509	–	–	–	–	–	–	–	–	–	–
NCI-H1650	0.596	0.459	0.392	0.487	0.41	0.499	0.485	0.483	1.11	1.17	–	1.14	1	–	–	–	–	–
NCI-H1703	–	–	–	–	–	–	–	–	1.13	1.14	1.61	1.27	0.89	0.67	0.515	–	0.721	0.612
NCI-H1792	0.7	0.63	0.853	0.805	–	–	–	–	0.634	0.589	0.623	0.591	0.571	0.534	0.503	0.393	0.52	0.535
NCI-H2170	0.729	0.695	0.782	0.777	0.856	0.89	0.999	0.816	0.605	0.637	0.594	0.567	0.544	–	–	–	–	–
NCI-H2342	0.597	0.589	0.646	0.671	0.872	0.722	0.78	0.764	–	–	–	–	–	–	–	–	–	–
SW 900	0.575	0.616	0.508	0.569	0.357	0.458	0.377	0.576	–	–	–	–	–	–	–	–	–	–
